Like-named read-outs stand apart in the source and are kept apart here.
Assays:
DIO C57BL/6 male mice = type: in vivo, mouse; design: Plasma adiponectin: unit not given here; details: for energy expenditure after i.p. injection: 0.5 mg/kg i.p.
Method: A dedicated study was conducted under contract at the University of Buckingham Institute of Translational Medicine (Pr. M A Cawthorne, Pr. P Trayhurn, Dr. C. Stocker) to assess the energetic and metabolic responses to the APT-110 miR-22-3p inhibitor treatment in adult Diet-Inducted-Obese (DIO) C57BL/6 male mice over the course of 3 months. Twenty-four DIO male C57BL/6 mice, who started on 60% high fat diet at the age of 7 weeks, were purchased at 15 weeks of age from the Jackson Laboratory, USA. The mice remained on a 60% high fat diet (Research Diet D12492) throughout the experiment. The mice were kept on a 12 h light/12 h dark light cycle with lights on at 08h00 and at a room temperature of 25±1° C. The mice were allocated to 2 groups of 12 mice each, (2 mice/cage) so that mean and standard deviation for body weight, blood glucose and serum insulin were similar across both groups. Mice were acclimated for two weeks before treatment initiation.
For oral glucose tolerance test, food was removed six hours prior to the start of the glucose tolerance test (09h00) and animals were placed in clean cages. Mice were dosed with glucose at T=0 minutes. Glucose was dissolved in water and given to the mice by oral gavage at a dose of 2.5 g/kg p.o. Blood samples […] were taken from the cut tip of the tail after the application of Lidocaine gel (Biorex Laboratories UK) for the analysis of glucose concentration at −30, 0, 30, 60, 120 and 180 minutes relative to glucose administration. Blood samples were also taken at −30 and +30 minutes for insulin analysis (Crystal Chem Inc. Cat INS90090). Food was returned to the animals at the end of the glucose tolerance test. Plasma nonesterified Fatty Acids (NEFA, Crystal Wako Chemicals Gmbh, Neuss, Germany, Cat 999-75406), leptin (Crystal Chem. Inc., Cat LEP90030) and adiponectin (Alpco Diagnostics, Salem, New Hampshire, Cat 47-ADPMS-E01) were measured as per the manufacturers' recommendations. Body fat and lean content was measured by Nuclear Magnetic Resonance (NMR). Comparison with calibrated standards allowed identification of types of tissue by their density. Dedicated software was used to quantify amounts of adipose and […]. The mice were gently restrained, sufficient to keep them quiescent during this non-invasive technique.
To measure physical activity, mice were kept in their original cages of 2 mice per cage. Recordings were taken using an infra-red recorder linked to a laptop. Recordings were made on the hour every hour from 7 pm until 8 am. Each recording was of 10-minute duration. Lights went out at 8 pm and came on again at 8 am. Analysis of activity was done by virtually drawing 2 lines across each cage (thus dividing them into 3 equal parts). Recordings were analyzed by eye and the number of times a line was broken by a mouse in each 10-minute segment was scored. Energy expenditure was measured at several time points during the course of the study by open-circuit indirect calorimetry with mice kept in their home cages (6 cages of 2 mice per experimental group (Arch, J. R., et al., 2006; Arch, J. R. and P. Trayhurn, 2013).
At the end of the study, tissues and organs were collected, then frozen for future gene expression analysis or placed in 10% neutral buffered formalin solution (Sigma-Aldrich Cat HT501128), then washed in PBS, pH 7.4 and transferred to 70% ethanol for subsequent processing for histologic and immunohistochemistry analyses.
In some studies, non-esterified fatty acids (NEFA), plasma leptin and adiponectin were also measured and oral glucose tolerance tests (OGTT) were performed. Oral glucose tolerance test was performed as follows: Six hours prior to the start of the glucose tolerance test (09h00), food was removed and animals were given clean cages. Mice were dosed with glucose at T=0 minutes. […]

[1] = tested on: human subcutaneous adipocytes; test: O2 consumption rate (OCR), Seahorse XF24 with XF Palmitate-BSA Fatty Acid Oxidation kit, human subcutaneous adipocytes; type: cell-based; details: for basal OCR vs control adipocytes: basal conditions, rosiglitazone 100 nM or APT-110 50 nM, control BSA
Method: To characterize the effects of miR-22-3p inhibition on energy utilization in human subcutaneous adipocytes in culture, O2 consumption rate (OCR) was measured with the XF24 Analyzer (Seahorse Bioscience) using the XF Palmitate-BSA Fatty Acid Oxidation substrate kit during the successive addition of Oligomycin, FCCP, and Antimycin/Rotenone, following the manufacturer instructions.
Human subcutaneous pre-adipocytes (ZenBio, NC) were seeded into 96-well plates and differentiated for 7 days, then placed in maintenance medium according to the manufacturer's instructions. On Day 14, the adipocytes were transfected with 50 nM of the miR-22-3p inhibitor APT-110. Medium was exchanged every 2 to 3 days and Seahorse assay was performed on Day 21. Negative control was bovine serum albumin (BSA) and positive control was 100 nM rosiglitazone throughout the culture.

DIO C57BL/6J male mice = test: APT-110 in 14-week old DIO mice on 60% high fat diet treated 6 weeks; type: in vivo, mouse
Method: A similar study was performed in 14-week old mice (n=9 per group) which were randomized into 2 groups according to similar body weights and kept on 60% high fat diet (Research Diet D12492) for 6 weeks. One group of mice received subcutaneous injections in the left inguinal fat pad of a custom-designed miR-22-3p inhibitor (APT-110, 18 nucleotides long, 15 mg/kg) on days 0, 2, and 4 of the first week, then once a week for the next 5 weeks. The other group kept on 60% high fat diet received saline injections.
Body composition was measured by NMR at the end of the study (week 6 of treatment). Fat mass was 30% lower in the APT-110 miR-22-3p inhibitor group on 60% fat diet than that in the control group on saline and 60% fat diet (11.29±0.87 vs. 16.11±0.87 grams, p<0.0017). Lean mass was similar in both groups at week 6 of treatment (21.74±0.99 vs. 22.33±0.63 grams).
DIO male C57BL/6J mice were started on a 60% high fat diet at the age of 6-week old and were randomized according to body weight into treatment groups (8 to 12 animals per group) at various ages. After acclimation for 1 to 2 weeks, the mice were administered subcutaneous injections of saline or a miR-22 antagomir in the left inguinal fat pad (injections on Days 0, 2, and 4, then once a week for up to 12 weeks) while they remained on the 60% high fat diet. In some studies, another control group of mice was switched back to a normal 10% fat chow at the time of treatment randomization.
Blood samples were collected by retro-orbital bleeds or cut tip of the tail. Mice underwent body composition analysis by NMR (Bruker LF50 BCA-Analyzer) while they were gently restrained to keep them quiet during this non-invasive measurement. Liver, heart, inguinal fat, perirenal or epididymal fat, and subscapular fat were weighed and collected for histology (10% formalin fixed, then transferred to 70% ethanol for shipment) and gene expression (flash frozen in duplicate). Spleens were weighed and discarded. Blood was collected and processed into serum or plasma at the time of necropsy by cardiocentesis. Serum level of alanine aminotransferase (ALT), aspartate aminotransferase (AST), glucose, insulin, cholesterol and triglycerides were measured.

[2] = tested on: UCP-1 protein expression in human subcutaneous adipocytes; test: UCP-1 protein expression by immunofluorescence in human subcutaneous adipocytes; type: cell-based; details: Day 14; 50 nM APT-110 or 100 nM rosiglitazone; PBS 48±3%
Method: To assess the effects of miR-22 inhibition on mitochondrial mass and activity, metabolic rate and energy expenditure, in vitro and in vivo experiments were carried out. In vitro intra-cellular assessment of mitochondrial mass and activities, as well as energy expenditure during miR-22 inhibition of human subcutaneous adipocytes were examined. In the model of primary culture of human subcutaneous adipocytes differentiated for 3 days, then transfected with 50 nM of the miR-22-3p inhibitor APT-110 and maintained in culture (n=6 per condition), the following parameters were assessed on Day 14. […]
(§1) Human subcutaneous preadipocytes purchased from ZenBio, NC (Catalog #: SP-F-SL) were plated at confluence in 96-well plates and allowed to attach overnight in preadipocyte medium (DMEM/Ham's F-12 (1:1, v/v), HEPES buffer, fetal bovine serum and antibiotics) following the supplier's instructions. […] Using a 96-well format, gene expression was determined by q-RT-PCR kit following the Manufacturer's instructions (TaqMan Gene Expression Cells-to-Ct kit, Life Technologies, cat #AM1728) and a 7900 HT Fast Real Time PCR System (Applied Biosystems). […] Mitochondrial mass and activity as well as UCP-1 protein expression were determined by high content imaging (ArrayScan XTI and BMG Fluostar Galaxy reader), with UCP-1 antibody (abcam cat #ab10983), and MitoTracker® Deep Red FM (ThermoFisher M22426).

[3] = tested on: human subcutaneous adipocytes; test: Mitochondrial content/mass by MitoTracker in human subcutaneous adipocytes; type: cell-based; details: Day 14; Rosiglitazone 100 nM
Method: To assess the effects of miR-22 inhibition on mitochondrial mass and activity, metabolic rate and energy expenditure, in vitro and in vivo experiments were carried out. In vitro intra-cellular assessment of mitochondrial mass and activities, as well as energy expenditure during miR-22 inhibition of human subcutaneous adipocytes were examined. In the model of primary culture of human subcutaneous adipocytes differentiated for 3 days, then transfected with 50 nM of the miR-22-3p inhibitor APT-110 and maintained in culture (n=6 per condition), the following parameters were assessed on Day 14.
as §1

[4] = Saenger 1989; cited from earlier work
[5] = Day −2 (before treatment), 6 hours fast
[6] = end of 12-week study, Mean ± SEM

5′-5mCpsTpsTps2′OMeCpsTpsTps5mCpsApsAps2′OMeCpsTpsGpsGps5mCpsApsGps5mCpsT-3′ [APT-110]
24-hr energy expenditure vs saline (DIO C57BL/6 male mice; Day 10 of treatment): did not show a difference
energy expenditure vs saline (DIO C57BL/6 male mice; Day 11, confirmed on Day 28 and Day 52): increase in energy expenditure
Blood glucose (DIO C57BL/6 male mice; Day 44, 6 hours fast): 9.01 ± 0.19 mmol/L
Plasma adiponectin (DIO C57BL/6 male mice; Day 44, 6 hours fast): 2.66 ± 0.15
Plasma insulin (DIO C57BL/6 male mice; Day 44, 6 hours fast): 295 ± 25 pmol/L
Plasma leptin (DIO C57BL/6 male mice; Day 44, 6 hours fast): 4.85 ± 0.42 nmol/L
Oral Glucose Tolerance Test profile (DIO C57BL/6 male mice; Day 75, glucose 2.5 g/kg p.o., saline mice diabetic profile): normal profile
Blood glucose (DIO C57BL/6 male mice; Day 79, 6 hours fast): 5.71 ± 0.18 mmol/L
Plasma adiponectin (DIO C57BL/6 male mice; Day 79, 6 hours fast): 3.16 ± 0.13
Plasma insulin (DIO C57BL/6 male mice; Day 79, 6 hours fast): 220 ± 17 pmol/L
Plasma leptin (DIO C57BL/6 male mice; Day 79, 6 hours fast): 4.21 ± 0.54 nmol/L
Cholesterol (DIO C57BL/6 male mice; Day 85, 6-hour fast, p<0.0001): 4.67 ± 0.16 mmol/L
Non Esterified Fatty Acids (DIO C57BL/6 male mice; Day 85, 6-hour fast, p=0.003): 1.71 ± 0.08 mmol/L
Triglycerides (DIO C57BL/6 male mice; Day 85, 6-hour fast, p=0.11): 1.46 ± 0.08 mmol/L
Blood glucose (DIO C57BL/6 male mice; [5]): 6.69 ± 0.27 mmol/L
Plasma adiponectin (DIO C57BL/6 male mice; [5]): 3.16 ± 0.13
Plasma insulin (DIO C57BL/6 male mice; [5]): 179 ± 18 pmol/L
Plasma leptin (DIO C57BL/6 male mice; [5]): 3.11 ± 0.45 nmol/L
fat mass difference vs saline (NMR) (DIO C57BL/6 male mice; Week 12, Day 82): −12%
lean mass (NMR) (DIO C57BL/6 male mice; Week 12, Day 82): identical in both groups
total daily energy expenditure greater than saline (DIO C57BL/6 male mice; average, day 11 to day 53): 13%
insulin sensitivity (fasting Insulin/Glucose ratio over time) (DIO C57BL/6 male mice; course of the 12-week study, control group developed insulin resistance): maintain the same level of insulin sensitivity
Epdidymal fat weight (DIO C57BL/6 male mice; [6]): 1.8 ± 0.978 grams
Inguinal fat weight (DIO C57BL/6 male mice; [6]): 3.166 ± 0.135 grams
Liver weight (DIO C57BL/6 male mice; [6]): 2.442 ± 0.127 grams
Peri-renal fat weight (DIO C57BL/6 male mice; [6]): 1.183 ± 0.096 grams
Subscapular fat weight (DIO C57BL/6 male mice; [6]): 0.202 ± 0.020 grams
weight gain vs mice receiving saline injections (DIO C57BL/6 male mice; week 12 of treatment, 60% high fat diet): −30%
non-mitochondrial respirations and proton leak on addition of palmitate ([1]; APT-110 50 nM + palmitate): dramatic increase
maximum respiration increase ([1]; APT-110 50 nM, assay Day 21): 33%
basal OCR vs control adipocytes [1]: 2 fold
weight increase week 6 vs Week 0 (DIO C57BL/6J male mice; 60% high fat diet, 15 mg/kg SC, saline 22%): 6%
blood glucose after fasting for 4 hours (DIO C57BL/6J male mice; Day 35 of treatment, saline 245±8): 183 ± 11 mg/dL
random blood glucose (DIO C57BL/6J male mice; Day 44 of treatment, at necropsy, saline 341±9): 212 ± 12 mg/dL
fat mass lower than control group on saline (DIO C57BL/6J male mice; NMR, week 6): 30%
fat mass (DIO C57BL/6J male mice; NMR, week 6, saline 16.11±0.87): 11.29±0.87 grams
lean mass (DIO C57BL/6J male mice; NMR, week 6, saline 22.33±0.63): 21.74±0.99 grams
body weight (DIO C57BL/6J male mice; Week 0 (baseline)): 34.15±0.53 grams
serum cholesterol (DIO C57BL/6J male mice; at necropsy, saline 164±6): 110 ± 5 mg/dL
body weight (DIO C57BL/6J male mice; week 6, 60% high fat diet, saline 41.73±1.07): 36.16±0.67 grams

C[C@H](Cc1ccc2c(c1)OC(C(=O)[O-])(C(=O)[O-])O2)NC[C@H](O)c1cccc(Cl)c1.[Na+].[Na+] [CL316243, reference compound]
energy expenditure after i.p. injection (DIO C57BL/6 male mice; APT-110 group): increased
energy expenditure after i.p. injection (DIO C57BL/6 male mice; control (saline) group): increased

CN(CCOc1ccc(CC2SC(=O)NC2=O)cc1)c1ccccn1 (stereo not shown) [Rosiglitazone, reference compound]
number of UCP1 positive cells [2]: 58±2%
cell density relative to miR-22-3p inhibitor condition [3]: 3 times more cells
maximum respiration vs control ([1]; after FCCP, rosiglitazone 100 nM): 4 fold
basal OCR vs control adipocytes [1]: 4 fold

Nc1ncnc2c1ncn2[C@@H]1O[C@H](CO)[C@@H](O)[C@H]1O [adenosine]
pKa of the conjugate acid [4]: 3.52

Nc1nc2c(ncn2[C@@H]2O[C@H](CO)[C@@H](O)[C@H]2O)c(=O)[nH]1 [guanosine]
pKa [4]: 9.42

Cc1cn([C@H]2C[C@H](O)[C@@H](CO)O2)c(=O)[nH]c1=O [thymidine]
pKa [4]: 9.93
